Source: ChEMBL document CHEMBL1201862, “PubChem BioAssay data set” (2004)
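Growth conditions: 96-well plates. Treatment: test compound, 48 hours, 5 concentrations. Analysis: linear interpolation between bracketing concentrations; unreached endpoints set to highest concentration. GI50 = concentration required for 50% inhibition of growth.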 Active and inactive are the calls of the source. Cut-off read from the data, not from the text of the source: active = GI50 up to about 1.1 µM and inactive = higher.

Key:
Assay in all cases: NCI-60 cell line screen, 48 h
[1] = tested on: EKVX
[2] = tested on: Hs-578T
[3] = tested on: SNB-19
[4] = tested on: NCI-H226
[5] = tested on: TK-10
[6] = tested on: HT-29
[7] = tested on: NCI-H23
[8] = tested on: SN12C
[9] = tested on: OVCAR-8
[10] = tested on: RXF 393
[11] = tested on: UACC-62
[12] = tested on: IGROV-1
[13] = tested on: RPMI-8226
[14] = tested on: HCC 2998
[15] = tested on: MDA-MB-435
[16] = tested on: DU-145
[17] = tested on: NCI-H460
[18] = tested on: NCI-H522

Measured: GI50

Oc1cc(O)c2c(c1)OC(c1ccc(O)c(O)c1)C(OC1(c3cc(O)c(O)c(O)c3)Oc3cc(O)cc(O)c3C(O)C1O)C2 (stereo unspecified)
inactive: [1] 15.6 µM | [2] 36.6 µM | [3] 55.1 µM | [4] 21.1 µM | [5] > 100 µM | [6] 18.1 µM | [7] 20.9 µM | [8] 20.8 µM | [9] 26 µM | [10] 73.5 µM | [11] 37.6 µM | [12] 30.7 µM | [13] 22.1 µM | [14] 62.8 µM | [15] 15.7 µM | [16] > 49 µM | [17] 18.4 µM | [18] 21.4 µM

O=C(CSCC(=O)N/N=C\c1ccc(O)c(O)c1O)N/N=C\c1ccc(O)c(O)c1O
inactive: [1] 21.3 µM | [2] 30.8 µM | [3] 29.4 µM | [4] 26.2 µM | [5] 24 µM | [6] 11.6 µM | [7] 1.69 µM | [8] 21.2 µM | [9] 2.31 µM | [10] 34.9 µM | [11] 15.6 µM | [12] 19.8 µM | [13] 2.3 µM | [14] 14.7 µM | [15] 1.97 µM | [16] 14.1 µM | [17] 23.3 µM | [18] 19.1 µM

c1ccc2/c3[nH]/c(c2c1)=N\c1ccc(cc1)-c1nc2ccc(cc2o1)/N=c1/[nH]/c(c2ccccc12)=N/c1ccc2nc(oc2c1)-c1ccc(cc1)\N=3
inactive: [1] 45.6 µM | [2] > 100 µM | [3] 26.1 µM | [4] 68.2 µM | [5] > 100 µM | [6] 33.4 µM | [7] 43.4 µM | [8] 20.9 µM | [9] > 100 µM | [10] 43.2 µM | [11] 51.4 µM | [12] 47.2 µM | [13] 18.9 µM | [14] 17.1 µM | [15] 27.6 µM | [16] 23.2 µM | [17] 7.38 µM | [18] 43.8 µM

CCC(=O)n1c(=O)n(-c2ccc([N+](=O)[O-])cc2)c(=O)n1C(=O)CC
inactive: [1] > 100 µM | [2] > 100 µM | [3] > 100 µM | [4] > 100 µM | [5] > 100 µM | [6] > 100 µM | [7] > 100 µM | [8] > 100 µM | [9] > 100 µM | [10] > 100 µM | [11] > 100 µM | [12] > 100 µM | [13] > 100 µM | [14] > 100 µM | [15] > 100 µM | [16] > 100 µM | [17] > 100 µM | [18] > 100 µM

CCOC(=O)/C=C(/N=P(c1ccccc1)(c1ccccc1)c1ccccc1)C(F)(F)F
inactive: [1] > 10 µM | [2] > 10 µM | [3] > 10 µM | [4] > 10 µM | [5] > 10 µM | [6] > 10 µM | [7] > 10 µM | [8] > 10 µM | [9] > 10 µM | [10] > 10 µM | [11] 5.9 µM | [12] > 10 µM | [13] > 10 µM | [14] 22 µM | [15] > 10 µM | [16] > 10 µM | [17] > 10 µM | [18] 61.9 µM

CN(C)c1nc(N)nc(CCl)n1
inactive: [1] 18.3 µM | [2] 25.4 µM | [3] > 100 µM | [4] 36.8 µM | [5] 72.8 µM | [6] 41.1 µM | [7] 24.5 µM | [8] 43.4 µM | [9] 35.5 µM | [10] 26.5 µM | [11] 18.9 µM | [12] 13.4 µM | [13] 46 µM | [14] 45.6 µM | [15] 37.1 µM | [16] 99.5 µM | [17] 32.7 µM | [18] 10.9 µM

O=C1CC(C(=O)O)Cc2c(Br)ccc(O)c21 (stereo unspecified)
inactive: [1] 78.2 µM | [2] > 100 µM | [3] > 100 µM | [4] 95.9 µM | [5] > 100 µM | [6] > 100 µM | [7] > 100 µM | [8] > 100 µM | [9] > 100 µM | [10] > 100 µM | [11] > 100 µM | [12] > 100 µM | [13] > 100 µM | [14] > 100 µM | [15] > 100 µM | [16] > 100 µM | [17] > 100 µM | [18] > 100 µM
